# From ChEMBL document CHEMBL4482312, “HTS Assay for Identifying Small Molecule Inhibitors of RAD52 and Uses of Identified Small Molecule Inhibitors for Treatment and Prevention of BRCA-Deficient Malignancies” (2018)
# Calls of active or inactive are those of the source. The calls are words filed in the database; no cut-off is given here.
# Legend:
# [1] = biological target: T1, DNA repair protein RAD52 homolog (Homo sapiens) (UniProt P43351); assay: Inhibition of RAD52 (unknown origin) assessed as reduction in RAD52-ssDNA interaction using Cy3-dT30-Cy5 ssDNA in presence of 0.01% Triton-X100 by FRET assay
# T1 sequence (whole entry): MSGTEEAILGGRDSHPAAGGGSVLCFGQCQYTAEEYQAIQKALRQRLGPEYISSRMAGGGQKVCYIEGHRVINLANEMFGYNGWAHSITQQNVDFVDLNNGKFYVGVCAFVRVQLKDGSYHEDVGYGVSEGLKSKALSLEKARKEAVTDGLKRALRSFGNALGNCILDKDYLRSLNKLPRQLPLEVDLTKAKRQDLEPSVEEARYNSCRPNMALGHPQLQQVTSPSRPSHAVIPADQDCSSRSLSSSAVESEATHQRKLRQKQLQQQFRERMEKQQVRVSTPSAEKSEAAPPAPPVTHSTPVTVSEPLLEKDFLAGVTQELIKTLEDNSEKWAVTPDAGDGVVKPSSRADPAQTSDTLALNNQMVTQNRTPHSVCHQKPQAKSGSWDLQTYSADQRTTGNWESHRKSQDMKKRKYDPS
# [2] = organism: Homo sapiens; assay: Binding affinity to RPA (unknown origin) assessed as effect on RPA-ssDNA interaction at 40 uM by water-logsy NMR method
# [3] = organism: Homo sapiens; assay: Inhibition of RAD52 (unknown origin) interaction with RPA (unknown origin)
# [4] = biological target: T1, DNA repair protein RAD52 homolog (Homo sapiens); assay: Inhibition of RAD52 in checkpoint deficient HU-treated in hTERT-immortalized wild-type human GM01604 fibroblasts assessed as decrease in MUS81/EME1/RAD52-dependent DSB formation by measuring mean tail moment at 500 nM in presence of […] by neutral comet assay
# [5] = biological target: T1, DNA repair protein RAD52 homolog (Homo sapiens); assay: Inhibition of RAD52 in checkpoint deficient HU-treated in hTERT-immortalized wild-type human GM01604 fibroblasts assessed as decrease in MUS81/EME1/RAD52-dependent DSB formation by measuring mean tail moment in presence of […] by neutral comet assay
# [6] = biological target: T1, DNA repair protein RAD52 homolog (Homo sapiens); assay: Inhibition of RAD52 in checkpoint deficient in hTERT-immortalized wild-type human GM01604 fibroblasts assessed as decrease in MUS81/EME1/RAD52-dependent DSB formation by measuring mean tail moment in presence of […] in presence of RAD52 siRNA by neutral comet assay
# [7] = organism: Homo sapiens; assay: Binding affinity to RPA (unknown origin) at 40 uM by water-logsy NMR method
# [8] = biological target: T1, DNA repair protein RAD52 homolog (Homo sapiens); assay: Inhibition of RAD52 in checkpoint deficient HU-treated in hTERT-immortalized wild-type human GM01604 fibroblasts assessed as inhibiting RAD52-MUS81-dependent DSBs at stalled replication forks in presence of […] by neutral comet assay
# [9] = organism: Homo sapiens; assay: Induction of anaphase bridge accumulation in checkpoint deficient HU-treated in hTERT-immortalized wild-type human GM01604 cells assessed as decrease in MUS81/EME1/RAD52-dependent DSB formation by measuring mean tail moment in presence of […] by neutral comet assay; format: functional
# [10] = biological target: T1, DNA repair protein RAD52 homolog (Homo sapiens); assay: Induction of protein aggregation of RAD52 (unknown origin) by dynamic light scattering assay
# [11] = biological target: T1, DNA repair protein RAD52 homolog (Homo sapiens); assay: Effect on oligomeric ring of RAD52 (unknown origin) by dynamic light scattering assay
# [12] = biological target: T1, DNA repair protein RAD52 homolog (Homo sapiens); assay: Inhibition of RAD52 in hTERT-immortalized wild-type human GM01604 fibroblasts assessed as cell death at 1 uM relative to control; design: scale not given: the % may be the effect or the level left
# [13] = biological target: T1, DNA repair protein RAD52 homolog (Homo sapiens); assay: Inhibition of RAD52 in hTERT-immortalized wild-type human GM01604 fibroblasts in presence of BRCA2 siRNA NA RAD52 siRNA assessed as potentiation of HU-induced cell death by Live/Dead assay relative to control
# [14] = biological target: T1, DNA repair protein RAD52 homolog (Homo sapiens); assay: Binding affinity to RAD52 (unknown origin) at 20 uM by water-logsy NMR method
# [15] = organism: Homo sapiens; assay: Binding affinity to RPA (unknown origin) assessed as effect on RPA-ssDNA interaction at 20 uM by water-logsy NMR method
# [16] = biological target: T1, DNA repair protein RAD52 homolog (Homo sapiens); assay: Inhibition of RAD52 in hTERT-immortalized wild-type human GM01604 fibroblasts with MUS81 knockdown assessed as potentiation of HU and UCN01-induced cell death by Live/Dead assay
# [17] = organism: Homo sapiens; assay: Binding affinity to RPA (unknown origin) at 20 uM by water-logsy NMR method
# [18] = biological target: T1, DNA repair protein RAD52 homolog (Homo sapiens); assay: Inhibition of RAD52 in hTERT-immortalized wild-type human GM01604 fibroblasts with BRCA2 knockdown assessed as potentiation of HU and UCN01-induced cell death by Live/Dead assay
# [19] = biological target: T2, DNA repair protein RAD52 homolog (Homo sapiens, UniProt P43351); assay: Inhibition of RAD52 (unknown origin) assessed as effect on RAD52-mediated annealing of complementary oligonucleotides using T-28 ssDNA substrate by FRET assay
# T2 sequence (P43351 whole entry): T1 sequence (whole entry)
# [20] = biological target: T2, DNA repair protein RAD52 homolog; assay: Inhibition of RAD52 (unknown origin) assessed as reduction in RAD52-ssDNA interaction using Cy3-dT30-Cy5 ssDNA by FRET assay
# [21] = Solubility in DMSO at 25 mM; format: physicochemical; settings: 25000 µM
# [22] = Solubility in 30 mM Tris-acetate buffer pH 7.5 in presence of 1 mM DTT at 10 uM; format: physicochemical; settings: pH 7.5, 10 µM
# [23] = biological target: T1, DNA repair protein RAD52 homolog (Homo sapiens); assay: Inhibition of RAD52 (unknown origin) assessed as reduction in RAD52-dsDNA interaction by FRET assay
# [24] = organism: Homo sapiens; assay: Binding affinity to RPA (unknown origin) by water-logsy NMR method
# [25] = biological target: T1, DNA repair protein RAD52 homolog (Homo sapiens); assay: Binding affinity to RAD52 (unknown origin) by water-logsy NMR method
# [26] = organism: Homo sapiens; assay: Binding affinity to RPA (unknown origin) assessed as effect on RPA-ssDNA interaction by water-logsy NMR method
# [27] = Solubility in 30 mM Tris-acetate buffer pH 7.5 in presence of 1 mM DTT at 115 uM; format: physicochemical; settings: pH 7.5, 115 µM
smiles,measurement,setting,value
O=C(O[C@@H]1Cc2c(O)cc(O)cc2O[C@@H]1c1cc(O)c(O)c(O)c1)c1cc(O)c(O)c(O)c1,inhibition,[1],Active
same,Activity,[2],inactive
same,inhibition,[3],inactive
same,inhibition,[4],Active
same,inhibition,[5],Dose-dependent effect
same,inhibition,[6],Active
same,Activity,[7],Active
same,inhibition,[8],Active
same,Activity,[9],inactive
same,Activity,[10],inactive
same,Activity,[11],inactive
Oc1cc(O)c2c(c1)O[C@H](c1cc(O)c(O)c(O)c1)[C@H](O)C2,Activity,[12],40%
same,inhibition,[13],Active
same,inhibition,[1],Active
same,Activity,[14],Active
same,Activity,[15],inactive
same,inhibition,[3],inactive
same,inhibition,[4],Active
same,inhibition,[5],Dose-dependent effect
same,inhibition,[6],Active
same,inhibition,[16],Active
same,Activity,[17],inactive
same,inhibition,[18],Active
same,inhibition,[8],Active
same,Activity,[9],inactive
same,Activity,[10],inactive
same,Activity,[11],inactive
CN(C)[C@@H]1C(O)=C(C(=O)NCN2CCCC2)C(=O)[C@@]2(O)C(O)=C3C(=O)c4c(O)cccc4[C@@](C)(O)[C@H]3C[C@@H]12 [ROLITETRACYCLINE],IC50,[19],Not Active
CC1(C)C(=O)C=C[C@@]2(C)C1=C(O)C(=O)[C@]1(C)[C@@H]2CC[C@@]2(C)[C@H](c3ccoc3)C[C@H]3O[C@]321 [CEDRELONE],IC50,[19],Not Active
CC(C)(O)C1Cc2cc3ccc(=O)oc3cc2O1 (stereo not drawn),IC50,[20],Not Active
COc1cc(N)c(Cl)cc1C(=O)N[C@H]1CCN(CCCOc2ccc(F)cc2)C[C@H]1OC.O,IC50,[19],Not Active
Oc1cc(O)c2c(c1)O[C@H](c1ccc(O)c(O)c1)[C@H](O)C2 [(-)-EPICATECHIN],IC50,[19],Not Active
CCOc1ccccc1NC(=O)c1c(NC(=O)Cc2ccc(OC)cc2)sc2c1CCC2,IC50,[20],Nd(Insoluble)
same,solubility,[21],Insoluble
NCCc1cc(O)c(O)cc1O [OXIDOPAMINE],IC50,[19],Not Active
CCOc1cc(C(Nc2cc(C)ccn2)c2ccc3ccc(C)nc3c2O)ccc1OC (stereo not drawn),solubility,[22],Insoluble
same,IC50,[20],Nd(Insoluble)
O=C(O[C@@H]1O[C@@H]2COC(=O)c3cc(O)c(O)c(O)c3-c3c(cc(O)c(O)c3O)C(=O)O[C@H]([C@H]1O)[C@@H]2O)c1cc(O)c(O)c(O)c1,inhibition,[23],inactive
same,Activity,[24],Active
same,Activity,[25],Active
same,Activity,[26],inactive
O=c1c2ccccc2nc(CSc2[nH]cnc3ncnc2-3)n1-c1cccc(C(F)(F)F)c1,IC50,[20],Nd(Insoluble)
same,solubility,[27],Insoluble
